The text below walks through data of patent US20060122175A1, “Benzdioxane piperazine derivatives with a combination of affinity for dopamine-D2 receptors and serotonin reuptake sites” (SOLVAY PHARMACEUTICALS B.V., priority 2004, published 2006).

Each structure is given as a SMILES string. Counter-ions that a name gives are not always drawn.

One data set addresses T1, dopamine-D2 receptors (Rattus norvegicus, UniProt P61169).
T1 construct: labels dopamine receptors in rat pituitary and brain; from tissue; host or cells: rat pituitary and brain (per the title of the cited method)
The data set can be described thus: In vitro affinity for dopamine-D2 receptors ([3H]-spiroperidol receptor binding assay). The following applies: average values from three independent experiments. As to the method: The affinity of the compounds of the invention for dopamine-D2 receptors and serotonine reuptake sites was determined as described above. […] Pharmacokinetic, pharmacodynamic, and other considerations may alter the dose actually administered to a higher or lower value. The dosage expediently administered is 0.001-1000 mg/kg, preferably 0.1-100 mg/kg of patient's bodyweight.
(§1) The results in the table below were obtained according to the methods described above. Binding data are average values from three independent experiments.

In the next data set the test system is dopamine D2 receptors. In words: Antagonism of apomorphine-induced climbing behaviour in mice (APO-climb). The note with it: Mus musculus, po, read-out: in vivo activity Dopamine-D2 APO-climb* ED50 mg/kg po.
In another data set the test system is serotonin reuptake. In words: Potentiation of 5-HTP induced behaviour in mice. The note with it: Mus musculus, po, read-out: in vivo activity 5-HT reuptake 5-HTP** ED50 mg/kg po. The source says:
The compounds show activity as antagonists at dopamine D2 receptors as they potentially antagonize apomorphine-induced climbing behaviour in mice (B. Costall et al., ‘Climbing behaviour induced by apomorphine in mice: a potential model for the detection of neuroleptic activity’, Eur. J. Pharmacol., 1978, 1, 39-50). The compounds also show activity as inhibitors of serotonin reuptake, as they potentiate 5-HTP induced behaviour in mice (B. L. Jacobs., ‘An animal behaviour model for studying central serotonergic synapses’, Life Sci., 1976, 19(6), 777-785). The compounds are active in therapeutic models sensitive to clinically relevant antipsychotics (e.g. the conditioned avoidance response; Van der Heyden & Bradford, Behav. Brain Res., 1988, 31:61-67) and antidepressants or anxiolytics (e.g. suppression of stress-induced vocalization; van der Poel et al., Psychopharmacology, 1989, 97: 147-148). In contrast to clinically relevant dopamine D2 receptor antagonists the described compounds have a low propensity to induce catalepsy in rodents and as such are likely to induce less extrapyramidal side effects than existing antipsychotic agents. The inhibitory activity of serotonin reuptake inherent in these compounds may be responsible for the therapeutic effects observed in behavioural models sensitive to either antidepressants or anxiolytics. The compounds can be used for the treatment of affections or diseases of the central nervous system caused by disturbances in either the dopaminergic or serotonergic systems, for example: aggression, anxiety disorders, autism, vertigo, depression, disturbances of cognition or memory, Parkinson's disease, and in particular schizophrenia and other psychotic disorders.

The next data set deals with T2, serotonin reuptake sites (Rattus norvegicus, UniProt P31652).
T2 construct: from tissue; host or cells: rat cortical membranes (per the title of the cited method)
T2 sequence (P31652 whole entry): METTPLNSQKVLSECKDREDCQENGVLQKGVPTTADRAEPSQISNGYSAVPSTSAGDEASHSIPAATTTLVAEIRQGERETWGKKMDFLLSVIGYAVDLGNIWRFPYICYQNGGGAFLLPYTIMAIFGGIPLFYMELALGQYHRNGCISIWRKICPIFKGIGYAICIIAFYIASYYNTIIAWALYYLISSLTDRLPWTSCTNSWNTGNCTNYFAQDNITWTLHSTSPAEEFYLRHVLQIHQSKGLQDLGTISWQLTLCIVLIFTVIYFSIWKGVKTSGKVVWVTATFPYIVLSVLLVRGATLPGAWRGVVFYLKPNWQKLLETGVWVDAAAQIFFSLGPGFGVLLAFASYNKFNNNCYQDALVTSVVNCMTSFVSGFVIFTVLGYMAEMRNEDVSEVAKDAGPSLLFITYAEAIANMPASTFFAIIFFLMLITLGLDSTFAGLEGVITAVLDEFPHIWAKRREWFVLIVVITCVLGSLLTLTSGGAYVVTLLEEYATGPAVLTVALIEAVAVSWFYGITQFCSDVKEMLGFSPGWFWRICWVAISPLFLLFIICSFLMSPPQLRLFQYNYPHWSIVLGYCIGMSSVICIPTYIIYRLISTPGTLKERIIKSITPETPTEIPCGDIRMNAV
The data set can be described thus: In vitro affinity for serotonin reuptake sites ([3H]-paroxetine receptor binding assay). The note with it: average values from three independent experiments; read-out: in vitro affinity 5-HT reuptake binding Ki. As to the method:
The affinity of the compounds of the invention for dopamine-D2 receptors and serotonine reuptake sites was determined as described above. From the binding affinity measured for a given compound of formula (1), one can estimate a theoretical lowest effective dose. […] Converting that concentration to mg of compound per kg of patient yields a theoretical lowest effective dose, assuming ideal bioavailability. Pharmacokinetic, pharmacodynamic, and other considerations may alter the dose actually administered to a higher or lower value. The dosage expediently administered is 0.001-1000 mg/kg, preferably 0.1-100 mg/kg of patient's bodyweight.
as §1

T1 sequence (P61169 whole entry): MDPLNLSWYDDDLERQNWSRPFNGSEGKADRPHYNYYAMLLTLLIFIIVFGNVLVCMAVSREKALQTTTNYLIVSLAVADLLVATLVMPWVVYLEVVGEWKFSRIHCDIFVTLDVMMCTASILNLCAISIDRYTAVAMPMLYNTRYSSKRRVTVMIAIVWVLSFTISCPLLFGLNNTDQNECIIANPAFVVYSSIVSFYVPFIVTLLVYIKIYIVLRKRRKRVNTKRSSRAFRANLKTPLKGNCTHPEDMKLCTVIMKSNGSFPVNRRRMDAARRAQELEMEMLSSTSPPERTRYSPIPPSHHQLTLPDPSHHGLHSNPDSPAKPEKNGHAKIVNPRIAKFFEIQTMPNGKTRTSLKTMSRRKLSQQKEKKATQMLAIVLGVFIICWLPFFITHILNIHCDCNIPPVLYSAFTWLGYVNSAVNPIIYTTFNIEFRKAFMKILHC

`Fc1ccc2c(CCCN3CCN(c4cccc5c4OCCO5)CC3)c[nH]c2c1` (as salt: fumaric acid salt) [Compound 5f, 3-{3-[4-(2,3-Dihydro-benzo[1,4]dioxin-5-yl)-piperazin-1-yl]-propyl}-6-fluoro-1H-indole]: the melting point (commonly the temperature of the solid-liquid transition) was 205 to 206 °C. For the compound `Clc1ccc2[nH]cc(CCCN3CCN(c4cccc5c4OCCO5)CC3)c2c1` (as salt: fumaric acid salt) [Compound 5j, 3-{3-[4-(2,3-Dihydro-benzo[1,4]dioxin-5-yl)-piperazin-1-yl]-propyl}-5-chloro-1H-indole], the melting point was in the range of 61 to 63 °C. Same read-out and setting: as for `Cc1ccc2[nH]cc(CCCN3CCN(c4cccc5c4OCCO5)CC3)c2c1` (as salt: fumaric acid salt) [Compound 5m, 3-{3-[4-(2,3-Dihydro-benzo[1,4]dioxin-5-yl)-piperazin-1-yl]-propyl}-5-methyl-1H-indole], the figure is 215 to 217 °C (dec.); as for `c1cc2c(c(N3CCN(Cc4c[nH]c5ccccc45)CC3)c1)OCCO2` [Compound 5a, 3-[4-(2,3-Dihydro-benzo[1,4]dioxin-5-yl)-piperazin-1-yl-methyl]-1H-indole], 85 to 86 °C. `c1cc2c(c(N3CCN(CCCc4c[nH]c5ccccc45)CC3)c1)OCCO2` [Compound 5b, 3-{3-[4-(2,3-Dihydro-benzo[1,4]dioxin-5-yl)-piperazin-1-yl]-propyl}-1H-indole] registered a melting point of 150 to 152 °C. Further, the Ki (as a rule, the dissociation constant of the complex between target and ligand, obtained from inhibition or displacement) at dopamine-D2 receptors came to 21 ± 9.9 nM. For the same compound, the ED50 with dopamine D2 receptors turned out to be 10 mg/kg. Also, the ED50 in the data set with serotonin reuptake turned out to be 22 mg/kg. `c1cc2c(c(N3CCN(CCCCCc4c[nH]c5ccccc45)CC3)c1)OCCO2` [Compound 5c, 3-{5-[4-(2,3-Dihydro-benzo[1,4]dioxin-5-yl)-piperazin-1-yl]-pentyl}-1H-indole] returned a Ki on dopamine-D2 receptors of 9.1 ± 1.8 nM.

The compound `Fc1cccc2[nH]cc(CCCN3CCN(c4cccc5c4OCCO5)CC3)c12` [Compound 5d, 3-{3-[4-(2,3-Dihydro-benzo[1,4]dioxin-5-yl)-piperazin-1-yl]-propyl}-4-fluoro-1H-indole] gave a melting point of 207 to 208 °C. Further, the affinity at dopamine-D2 receptors corresponds to a Ki of 8.1 ± 3.1 nM. Also, in the data set on dopamine D2 receptors, the ED50 amounted to 13 mg/kg. Also, the ED50 in the data set on serotonin reuptake amounted to 32 mg/kg.

On dopamine-D2 receptors, `Fc1ccc2[nH]cc(CCCN3CCN(c4cccc5c4OCCO5)CC3)c2c1` [Compound 5e, 3-{3-[4-(2,3-Dihydro-benzo[1,4]dioxin-5-yl)-piperazin-1-yl]-propyl}-5-fluoro-1H-indole] came in with a Ki of 19 ± 3 nM. In addition, the ED50 with serotonin reuptake was 2 mg/kg. As for `Fc1ccc2c(CCCN3CCN(c4cccc5c4OCCO5)CC3)c[nH]c2c1` [Compound 5f, 3-{3-[4-(2,3-Dihydro-benzo[1,4]dioxin-5-yl)-piperazin-1-yl]-propyl}-6-fluoro-1H-indole], the ED50 with dopamine D2 receptors was 9 mg/kg; with serotonin reuptake, 30 mg/kg. For `Fc1cccc2c(CCCN3CCN(c4cccc5c4OCCO5)CC3)c[nH]c12` [Compound 5g, 3-{3-[4-(2,3-Dihydro-benzo[1,4]dioxin-5-yl)-piperazin-1-yl]-propyl}-7-fluoro-1H-indole], affinity on dopamine-D2 receptors was put at a Ki of 10.6 ± 4 nM. The ED50 in the data set with serotonin reuptake came out at 28.4 mg/kg. Consider `COc1ccc2[nH]cc(CCCN3CCN(c4cccc5c4OCCO5)CC3)c2c1` [Compound 5h, 3-{3-[4-(2,3-Dihydro-benzo[1,4]dioxin-5-yl)-piperazin-1-yl]-propyl}-5-methoxy-1H-indole], for which, at dopamine-D2 receptors, the Ki was found to be 5 ± 4 nM.

`Clc1cccc2[nH]cc(CCCN3CCN(c4cccc5c4OCCO5)CC3)c12` [Compound 5i, 3-{3-[4-(2,3-Dihydro-benzo[1,4]dioxin-5-yl)-piperazin-1-yl]-propyl}-4-chloro-1H-indole] displayed a Ki at dopamine-D2 receptors of 24 ± 3 nM. Regarding `Clc1ccc2[nH]cc(CCCN3CCN(c4cccc5c4OCCO5)CC3)c2c1` [Compound 5j, 3-{3-[4-(2,3-Dihydro-benzo[1,4]dioxin-5-yl)-piperazin-1-yl]-propyl}-5-chloro-1H-indole], the Ki came to 31.6 ± 16 nM on dopamine-D2 receptors and 1.4 ± 0.7 nM at serotonin reuptake sites.

On to `Clc1ccc2c(CCCN3CCN(c4cccc5c4OCCO5)CC3)c[nH]c2c1` [Compound 5k, 3-{3-[4-(2,3-Dihydro-benzo[1,4]dioxin-5-yl)-piperazin-1-yl]-propyl}-6-chloro-1H-indole], for which the Ki on dopamine-D2 receptors stood at 2.1 ± 1 nM. The results for the ED50 with dopamine D2 receptors and in the data set with serotonin reuptake were 4.5 mg/kg and 86 mg/kg, respectively. `Clc1cccc2c(CCCN3CCN(c4cccc5c4OCCO5)CC3)c[nH]c12` [Compound 5l, 3-{3-[4-(2,3-Dihydro-benzo[1,4]dioxin-5-yl)-piperazin-1-yl]-propyl}-7-chloro-1H-indole]: on dopamine-D2 receptors, the Ki stood at 15.5 ± 5.4 nM. For the compound `Cc1ccc2[nH]cc(CCCN3CCN(c4cccc5c4OCCO5)CC3)c2c1` [Compound 5m, 3-{3-[4-(2,3-Dihydro-benzo[1,4]dioxin-5-yl)-piperazin-1-yl]-propyl}-5-methyl-1H-indole], the Ki at serotonin reuptake sites turned out to be 1.3 ± 0.9 nM. Regarding `Cc1cccc2c(CCCN3CCN(c4cccc5c4OCCO5)CC3)c[nH]c12` [Compound 5n, 3-{3-[4-(2,3-Dihydro-benzo[1,4]dioxin-5-yl)-piperazin-1-yl]-propyl}-7-methyl-1H-indole], on dopamine-D2 receptors, the Ki turned out to be 15.9 ± 4.7 nM. The same measure, in the same setting: under `c1cc2c(c(N3CCN(CCCc4c[nH]c5ccccc45)CC3)c1)CCCO2` [Compound 14, 3-[3-(4-chroman-5-yl-piperazine-1-yl)-propyl]-1H-indole] stands 20.3 ± 2.7 nM.
